Speed of sound and mass density data for four molecules are collected here from the NIST ThermoML archive (doi:10.1016/j.jct.2013.08.013).

For the series the following is noted: 101 kPa, Liquid; for speed of sound: Frequency=2 MHz, Linear variable-path acoustic interferometer; for mass density: Vibrating tube method.

± gives the expanded uncertainty stated by the source.

Usually speed of sound stands for how fast a sound wave travels through the sample. The mass density is mass per unit of volume. Take `CCCCCCCO` [heptan-1-ol]: the speed of sound reads like this: (298.15 K) 1326.5 ± 1.9 m/s; (303.15 K) 1313.6 ± 1.9 m/s; (308.15 K) 1293.1 ± 1.9 m/s. Further, the mass density reads like this: (298.15 K) 818.79 ± 0.16 kg/m3; (303.15 K) 815.21 ± 0.16 kg/m3; (308.15 K) 811.62 ± 0.16 kg/m3.
In the case of `CCCCO` [butan-1-ol], the speed of sound runs as follows: (298.15 K) 1238.9 ± 1.8 m/s; (303.15 K) 1223.4 ± 1.8 m/s; (308.15 K) 1206.8 ± 1.8 m/s. Moreover, the mass density (298.15 K) is reported as 805.95 ± 0.16 kg/m3, the mass density (303.15 K) is given as 802.11 ± 0.17 kg/m3 and the mass density (308.15 K) stood at 798.24 ± 0.17 kg/m3.
On to `CCCO` [propan-1-ol], for which the speed of sound reads like this: (298.15 K) 1206.5 ± 1.8 m/s; (303.15 K) 1188.6 ± 1.8 m/s; (308.15 K) 1171.8 ± 1.8 m/s. Also, the mass density is 799.65 ± 0.17 kg/m3 (298.15 K), 795.65 ± 0.17 kg/m3 (303.15 K) and 791.65 ± 0.17 kg/m3 (308.15 K).
`CCCCCCO` [hexan-1-ol]: the speed of sound by setting is: (298.15 K) 1303.2 ± 2.4 m/s; (303.15 K) 1286.4 ± 2.4 m/s; (308.15 K) 1269.7 ± 2.3 m/s. Further, the mass density came to 815.31 ± 0.4 kg/m3 (298.15 K), 811.7 ± 0.4 kg/m3 (303.15 K) and 808.06 ± 0.4 kg/m3 (308.15 K).
